Assays:
Type in all cases: physicochemical
[1] = Stability of Selexipag amorphous form on storage, solid form by PXRD
Description: X-ray powder diffraction spectrum was measured on a bruker axs D8 advance X-ray powder diffractometer having a copper-a radiation. Adequate sample was gently flattered on a sample holder and scanned from 2 to 50 degrees two-theta, at 0.02 increment and scan speed of 0.2 Sec/Step. The sample was simply placed on the sample holder. The sample was rotated at 30 rpm at a voltage 40 KV and current 35 mA. In another aspect of the present invention, Selexipag amorphous form is stable at 5±3° C. and 25±2° C./RH (Relative humidity) 60±5%, 40±2° C./RH (Relative humidity) 75±5% and has the following stability data: […]

[2] = Storage stability of Selexipag amorphous form (statement); conditions: at 5±3° C. and 25±2° C./RH 60±5%, 40±2° C./RH 75±5%
Description: (§1) In another aspect of the present invention, Selexipag amorphous form is stable at 5±3° C. and 25±2° C./RH (Relative humidity) 60±5%, 40±2° C./RH (Relative humidity) 75±5% and has the following stability data: […]

[3] = Stability of Selexipag amorphous form on storage, Chromatographic Purity (by HPLC)
Description: as §1

[4] = 25 ± 2° C./RH 60 ± 5%, 1st month
[5] = 25 ± 2° C./RH 60 ± 5%, 2nd Month
[6] = 25 ± 2° C./RH 60 ± 5%, 3rd Month
[7] = 25 ± 2° C./RH 60 ± 5%, 4th Month
[8] = 25 ± 2° C./RH 60 ± 5%, 5th Month
[9] = 40 ± 2° C./RH 75 ± 5%, 1st month
[10] = 40 ± 2° C./RH 75 ± 5%, 2nd Month
[11] = 40 ± 2° C./RH 75 ± 5%, 3rd Month

CC(C)N(CCCCOCC(=O)NS(C)(=O)=O)c1cnc(-c2ccccc2)c(-c2ccccc2)n1 [Selexipag amorphous form, 2-{4-[(5,6-diphenylpyrazin-2-yl)(isopropyl)amino]butoxy}-N-(methylsulfonyl)acetamide]
PXRD ([1]; 5 ± 3° C., 1st month): Amorphous
PXRD ([1]; 5 ± 3° C., 2nd Month): Amorphous
PXRD ([1]; 5 ± 3° C., 3rd Month): Amorphous
PXRD ([1]; 5 ± 3° C., 4th Month): Amorphous
PXRD ([1]; 5 ± 3° C., 5th Month): Amorphous
PXRD ([1]; 5 ± 3° C., 6th Month): Amorphous
PXRD ([1]; 5 ± 3° C., Initial): Amorphous
PXRD [1, 4]: Amorphous
PXRD [1, 5]: Amorphous
PXRD [1, 6]: Amorphous
PXRD [1, 7]: Amorphous
PXRD [1, 8]: Amorphous
PXRD ([1]; 25 ± 2° C./RH 60 ± 5%, Initial): Amorphous
PXRD [1, 9]: Amorphous
PXRD [1, 10]: Amorphous
PXRD [1, 11]: Amorphous
PXRD ([1]; 40 ± 2° C./RH 75 ± 5%, Initial): Amorphous
stability on storage [2]: stable
Chromatographic Purity (by HPLC) ([3]; 5 ± 3° C., 1st month): 99.63
Chromatographic Purity (by HPLC) ([3]; 5 ± 3° C., 2nd Month): 99.66
Chromatographic Purity (by HPLC) ([3]; 5 ± 3° C., 3rd Month): 99.76
Chromatographic Purity (by HPLC) ([3]; 5 ± 3° C., 4th Month): 99.76
Chromatographic Purity (by HPLC) ([3]; 5 ± 3° C., 5th Month): 99.70
Chromatographic Purity (by HPLC) ([3]; 5 ± 3° C., 6th Month): 99.76
Chromatographic Purity (by HPLC) ([3]; 5 ± 3° C., Initial): 99.63
Chromatographic Purity (by HPLC) [3, 4]: 99.63
Chromatographic Purity (by HPLC) [3, 5]: 99.59
Chromatographic Purity (by HPLC) [3, 6]: 99.72
Chromatographic Purity (by HPLC) [3, 7]: 99.78
Chromatographic Purity (by HPLC) [3, 8]: 99.69
Chromatographic Purity (by HPLC) ([3]; 25 ± 2° C./RH 60 ± 5%, 6th Month): 99.68
Chromatographic Purity (by HPLC) ([3]; 25 ± 2° C./RH 60 ± 5%, Initial): 99.63
Chromatographic Purity (by HPLC) [3, 9]: 99.62
Chromatographic Purity (by HPLC) [3, 10]: 99.58
Chromatographic Purity (by HPLC) [3, 11]: 99.66
Chromatographic Purity (by HPLC) ([3]; 40 ± 2° C./RH 75 ± 5%, 4th Month): 99.69
Chromatographic Purity (by HPLC) ([3]; 40 ± 2° C./RH 75 ± 5%, 5th Month): 99.66
Chromatographic Purity (by HPLC) ([3]; 40 ± 2° C./RH 75 ± 5%, 6th Month): 99.65
Chromatographic Purity (by HPLC) ([3]; 40 ± 2° C./RH 75 ± 5%, Initial): 99.63

Reference: US10815204B2, “Process for the preparation of diphenylpyrazine derivatives” (HONOUR (R&D), priority 2016, dated 2020)
